The values that follow come from patent US20170135996A1, “PHARMACEUTICAL DEPOT FOR N-{5-[(CYCLOPROPYLAMINO)CARBONYL]-2-METHYLPHENYL)-3-FLUORO-4-(PYRIDIN-2-YLMETHOXY)BENZAMIDE” (AstraZeneca AB, priority 2008, published 2017).

Data set [1] has as its system rat mono-iodoacetate (MIA) model of joint pain. As to the kind of experiment: Rat mono-iodoacetate (MIA) model of joint pain, weight bearing asymmetry. It counts as in vivo. The following applies: unformulated, 29 μg/ml (69 μM) in 5 μl intra-articular, 3 days post MIA. Here is the method:
All studies were carried out in a rat mono-iodoacetate (MIA) model of joint pain as a screen for analgesia of pain driven by joint inflammation and destruction (see Ivanavicius et al., 2007 Pain 128 p272). The MIA model induces an early synovitis (day 3) followed by progressive loss of articular cartilage, and subchondral bone pathology by day 14.
N-{5-[(cyclopropylamino)carbonyl]-2-methylphenyl}-3-fluoro-4-(pyridin-2-ylmethoxy)benzamide was formulated into PLGA microspheres (50:50 PLGA as in Example 1) and tested in the MIA model. Rats were injected intra-articularly with MIA on day 0. Three days post MIA (to allow disease to progress) animals were injected intra-articularly with formulated N-{5-[(cyclopropylamino)carbonyl]-2-methylphenyl}-3-fluoro-4-(pyridin-2-ylmethoxy)benzamide in 50:50 PLGA (200 μg/30 μl) or with microsphere formulation ([…]).
A dose of 29 μg/ml (69 μM) of N-{5-[(cyclopropylamino)carbonyl]-2-methylphenyl}-3-fluoro-4-(pyridin-2-ylmethoxy)benzamide was delivered in a 5 μl injection volume to give a Cmin concentration of 1 μM at 1.5 hours. The dosing was carried out 3 days post MIA at the same time point that formulated N-{5-[(cyclopropylamino)carbonyl]-2-methylphenyl}-3-fluoro-4-(pyridin-2-ylmethoxy)benzamide as the PA were dosed. […]

A short description of data set [2]: Systemic pharmacokinetic parameters in the rat. It counts as in vivo. Set-up: systemic Vdss: unit not given here.
The nature of data set [3]: Hydrolytic stability of PA in the acidic microclimate of the degrading polymer. It is filed as physicochemical. The note with it: acidic microclimate created upon degradation of the polymer.
Data set [4] in a line: Synovial fluid pharmacokinetics after intra-articular injection of unformulated PA. The note with it: rat, 15 ng in 5 μl intra-articular. It counts as in vivo. Here is the method:
Unformulated N-{5-[(cyclopropylamino)carbonyl]-2-methylphenyl}-3-fluoro-4-(pyridin-2-ylmethoxy)benzamide was intra-articularly injected (15 ng in 5 μl injection in PBS) to rats and synovial fluid concentrations were determined at 15, 30 and 60 minutes post dose. The synovial fluid from the rat knee joint was sampled using a knee wash methodology. The knee was exposed and a transverse cut made to the patellar tendon proximal to the tibia. The knee cavity was opened up by dissection, and the knee lavaged between the tibial and femoral condyles with 3×25 μl PBS using an eppendorf pipette.

Regarding `Cc1ccc(C(=O)NC2CC2)cc1NC(=O)c1ccc(OCc2ccccn2)c(F)c1` [PA, N-{5-[(cyclopropylamino)carbonyl]-2-methylphenyl}-3-fluoro-4-(pyridin-2-ylmethoxy)benzamide], the “efficacy in MIA model (% weight distribution)” value in data set [1] is “no efficacy”. Further, the “systemic Vdss” value in data set [2] came to 1.71 kg⁻¹. For the same molecule, the clearance in data set [2] (in vivo, read-out: systemic Cl) is 14 mL/min/kg. Also, the hydrolytic stability entry in data set [3] is given as “hydrolytically stable”. For the same molecule, in data set [4], the “Clearance (Cl)” value was 61 µL/h and the “Volume of distribution (Vdss)” value was determined as 9 µL. Moreover, in data set [4] (read-out: Half-life (t1/2) (converted)), the half-life was 12 min.
